One data set relates to CD-1 Mice. Briefly: Novel object recognition assay. The data set is classed as in vivo. Conditions: oral dose 3.0 mg/kg, 1 hr inter-trial interval. The source says:
Object recognition memory—judgment of the prior occurrence of objects—is a key part of human memory, and is commonly impaired in neurodegenerative diseases, such as Alzheimer's disease (Winters B D et al Neurosci Behav Rev 32 (2008) 1055-70). This may be modeled in laboratory rodents using delayed spontaneous novel object recognition, which tests the ability of an animal to recognize an object it has previously been exposed to, after a delay. Drugs may be evaluated for their ability to improve the animal's ability to remember, recall or recognize objects in this model.
CD-1 Mice (males, 7-8 weeks old) were fasted for 16 hrs and orally dosed with compounds of interest 30 min before experiments began. Throughout those 30 min, animals were left in their home cages except during a 1 min handling habituation session at 10 min post-dosing. All handling and experiments were carried out under low, indirect light during the hours between 8 am and 3 pm. Compound 122a and donepezil were dissolved in PBS. […] Mouse activity was recorded using a digital video camera and evaluated after the trial. The time each mouse spent with its nose in contact with either object (investigation) was recorded for each minute of T2, and a Discrimination Score (D Score) was calculated using the following formula once the animal completed a total of 1 min of investigation. […]

Data set [1] has as its system pooled male human liver microsomes. Briefly: Metabolism in human liver microsomes, Example 45. The data set is classed as in vitro ADME. The gist of the method: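 Pooled male human liver microsomes sampled every 2 hours, reactions stopped with 1% formic acid. After centrifugation and ultrafiltration, remaining parent compound quantified by reverse-phase C8 LC/MS/MS with electrospray and MRM transitions against a standard calibration curve.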
A general note: Liver microsomes are vesicles of endoplasmic reticulum, rich in cytochrome P450 enzymes.

Data set [2] deals with T1, human muscarinic M3 receptors (Homo sapiens, UniProt P20309).
T1 construct: host or cells: A9L cells
Briefly: IP production in A9L cells with human M3 receptors (IPOne TR-FRET), Example 28. The data set is classed as cell-based. An outline of the steps:
(§1)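 A9L cells transfected with human M1 or M3 receptors, exposed to compound in medium with 10 mM LiCl and 10 mM HEPES (pH 7.4) for 60 min at 37 °C. IP in lysates measured by IPOne TR-FRET; efficacy expressed relative to full agonist (100%).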

The target in a further data set is T2, human FMO1 Supersomes (Homo sapiens, UniProt Q01740).
T2 construct: purchased BD Biosciences 456241
T2 sequence (Q01740 1-532): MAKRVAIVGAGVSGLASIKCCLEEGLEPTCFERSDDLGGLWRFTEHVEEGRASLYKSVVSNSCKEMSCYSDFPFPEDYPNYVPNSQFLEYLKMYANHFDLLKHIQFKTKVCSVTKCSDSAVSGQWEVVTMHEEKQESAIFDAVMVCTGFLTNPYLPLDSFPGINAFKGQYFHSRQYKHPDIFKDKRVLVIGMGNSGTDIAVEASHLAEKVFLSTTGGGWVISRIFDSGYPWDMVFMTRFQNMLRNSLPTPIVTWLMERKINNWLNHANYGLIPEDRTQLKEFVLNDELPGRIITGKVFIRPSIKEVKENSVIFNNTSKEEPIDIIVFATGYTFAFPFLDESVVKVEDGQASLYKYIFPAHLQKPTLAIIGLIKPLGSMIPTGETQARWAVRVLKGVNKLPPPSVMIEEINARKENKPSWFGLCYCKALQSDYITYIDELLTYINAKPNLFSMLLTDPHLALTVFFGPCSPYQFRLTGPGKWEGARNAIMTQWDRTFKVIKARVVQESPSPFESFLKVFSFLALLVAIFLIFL
The data set can be described thus: Metabolism by flavin monoxygenase 1 (FMO1) Supersomes. The format is in vitro ADME. Conditions: after 6 hours (FIG. 2). The protocol: […] Aliquots were removed every 10 minutes, and 1% formic acid was added to halt the reaction. Samples were centrifuged, filtered through 0.2 micron spinfilter and the amount of each compound in the supernatants was quantitated using LC/MS/MS.

A further data set has as its system anesthetized normal rats. Briefly: In vivo measurement of salivation. Also noted: species or system Long Evans Hooded rats. The note with it: anesthetized normal rats, dose-dependent between about 0.1 mg/kg and 1 mg/kg (FIG. 11). Here is the method: Suitable doses of test compounds or drug substances were administered using standard techniques to Long Evans Hooded rats weighing 225 to 350 grams, or CD-1 mice weighing 30 to 50 grams, which had been anesthetized using 2-3.5%% of isoflurane in oxygen. The animals were placed slightly head-down on an inclined, heated ramp. Rectal temperature was monitored using a thermocouple and the temperature of the heating pad was adjusted manually to maintain normal body temperature. Saliva was collected from the mouth by absorption onto pre-weighed slips of filter paper. The filter paper was changed periodically and the amount of saliva was measured by weighing the filter paper slips

For data set [3], the system named is A-beta 1-40 and A-beta 1-42. The data set can be described thus: A-beta in hippocampal microdialysate of transgenic mice. The format is in vivo, Tg-2576 transgenic mice. The note with it: Tg-2576 mice, single dose (FIG. 14). The source says: These mice have high concentrations of A-beta in their brain tissue, thought to be the cause of neuron death in Alzheimer's disease, and accumulate amyloid plaques, recapitulating one of the hallmark pathological features of Alzheimer's disease.

Another data set concerns CD-I mice. Briefly: Apomorphine induced climbing model of psychosis. The format is in vivo. The protocol: As described in Costall et. al. European Journal of Pharmacology 1978, 50, 39. individual CD-I mice, 1-2 months old, were placed in a cylindrical wire mesh cage (13.2 cm high×13.2 cm diameter) constructed of steel wire 1 mm thick spaced at 1.2 cm^2. Cylinders were placed in a standard OptiMICE mouse cage (29×32×9×29 cm and 14 cm high) with adequate wood chip bedding provided. Observations of climbing (defined as 3 or more paws of the ground) were carried out every 5 minutes at a duration of 1 minute for […]. Animals were injected subcutaneously under isoflurane anesthesia with test compounds, reference compounds, which included clozapine, haloperidol, olanzapine and xanomeline, or PBS as a control. This was followed 5 minutes later by 2 mg/kg apomorphine hydrochloride. All drugs were dissolved in PBS or a mixture of (by volume) 96% PBS and 4% hydroxypropyl-beta-cyclodextrin, and dosed at a rate of 5 ml per kilogram of body weight. Following injections, animals were replaced in the mesh cages and observed for climbing (defined as 3 or more paws off the ground) every 5 minutes for 1 minute for 60 minutes after dosing.

In data set [4] the test system is hippocampal inositol phosphate. Briefly: In vivo tissue inositol phosphate signaling pathway activation, hippocampus. Further details: species or system Long Evans Hooded rats. The note with it: normal rats, dose-dependent 0.03 mg/kg to at least 3 mg/kg (FIG. 10A). Here is the method:
Experimental compounds or drug substances were administered using standard techniques to Long Evans Hooded rats weighing 225 to 350 grams, and which had been pretreated with a subcutaneous injection of lithium chloride at a suitable dose between 3 and 10 mmoles per kg. At suitable times the animals were briefly anesthetized using 5% isoflurane and euthanized by decapitation. The brains and submaxillary salivary glands were rapidly dissected out, and the hippocampuses were dissected from the brains. The dissected tissues were homogenized in a suitable volume of ice-cold phosphate-buffered saline containing 10 mM lithium chloride, pH7.4, using a tissue homogenizer, and used immediately or frozen in aliquots at −80 deg C. for future use. The concentration of inositol-1-phosphate was determined in the homogenates using the IPOne TR-FRET assay (CisBio cat no 621PAPEB), following the manufacturer's instruction

Data set [5] addresses T3, human muscarinic M1 receptors (Homo sapiens, UniProt P11229).
T3 construct: host or cells: A9L cells
T3 sequence (P11229 1-460): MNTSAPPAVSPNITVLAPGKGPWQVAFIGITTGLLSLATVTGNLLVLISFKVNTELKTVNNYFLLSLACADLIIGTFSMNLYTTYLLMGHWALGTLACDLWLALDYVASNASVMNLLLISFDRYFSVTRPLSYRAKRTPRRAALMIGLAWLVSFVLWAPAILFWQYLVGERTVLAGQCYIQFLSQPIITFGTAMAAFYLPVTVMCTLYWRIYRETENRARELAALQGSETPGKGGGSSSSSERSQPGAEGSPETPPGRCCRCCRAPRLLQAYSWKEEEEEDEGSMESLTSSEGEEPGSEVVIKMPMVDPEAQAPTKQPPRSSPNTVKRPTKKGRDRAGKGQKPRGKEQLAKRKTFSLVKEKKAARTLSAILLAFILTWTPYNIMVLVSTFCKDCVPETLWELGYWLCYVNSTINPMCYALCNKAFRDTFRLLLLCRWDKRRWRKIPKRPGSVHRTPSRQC
Briefly: IP production in A9L cells with human M1 receptors (IPOne TR-FRET), Example 28. The data set is classed as cell-based. The gist of the method:
as §1
A general note: TR-FRET usually uses a lanthanide donor and a delayed reading to cut background.

In data set [6] the test system is pooled male human liver microsomes. The data set can be described thus: Metabolism by human liver microsomes, Example 33. The format is in vitro ADME. The note with it: 6 hours incubation (FIGS. 4A, 4B). Here is the method: Compounds were incubated with pooled male human liver microsomes (BD Biosciences, #452172) and an NADP-regenerating system in a phosphate buffer (pH 7.4) for a total of 6 hours. Aliquots were removed every 2 hours, and 1% formic acid was added to halt the reaction. Samples were centrifuged, filtered through 0.2 micron spinfilter and the amount of each compound in the supernatants was quantitated using LC/MS/MS.

The nature of the next data set: in vitro. Conditions: PAMPA. (In general: PAMPA measures passive passage across an artificial lipid membrane.)
The target in a further data set is T4, rat M3 receptors (Rattus norvegicus, UniProt P08483).
T4 construct: host or cells: CHO (M3-CHO)
Briefly: PI turnover (inositol phosphate production) in M3-CHO cells. The format is cell-based. Conditions: mean Smax relative to carbachol (100.0); CHO cells expressing rat M3. Here is the method: The medium was changed to 70 μL/well of inositol-free DMEM containing 2 mM glutamine, 10% FBS and 10 μCi/ml of [3H]-inositol (PE:cat # NET114A250UC), incubated overnight as above, then 100 μL of a solution of the test compound in HBSS containing 10 mM LiCl and 20 mM HEPES, pH 7.4 was added, incubation was continued for 60 min under the above conditions, and the test was stopped by removing the test compound and replacing with 100 μL of 50 mM formic acid in water at 4° C. […] The compounds in Table 1 are all dihydropyrimidine-oxadiazoles which vary only at the oxadiazole side chain.

Where [7] appears, read: percentage of maximal stimulation by carbachol.
The mark [8] stands for this setting: potency relative to carbachol at its EC50, semi-quantitative.
Where [9] appears, read: mice, sc, apomorphine 2 mg/kg (FIG. 1).

SMILES strings stand for the structures. Where a name gives a salt, the structure may show the parent alone.

By Papp is commonly meant a coefficient for how fast a substance crosses the barrier. Higher therefore signals fast passage.

T1 sequence (P20309 whole entry): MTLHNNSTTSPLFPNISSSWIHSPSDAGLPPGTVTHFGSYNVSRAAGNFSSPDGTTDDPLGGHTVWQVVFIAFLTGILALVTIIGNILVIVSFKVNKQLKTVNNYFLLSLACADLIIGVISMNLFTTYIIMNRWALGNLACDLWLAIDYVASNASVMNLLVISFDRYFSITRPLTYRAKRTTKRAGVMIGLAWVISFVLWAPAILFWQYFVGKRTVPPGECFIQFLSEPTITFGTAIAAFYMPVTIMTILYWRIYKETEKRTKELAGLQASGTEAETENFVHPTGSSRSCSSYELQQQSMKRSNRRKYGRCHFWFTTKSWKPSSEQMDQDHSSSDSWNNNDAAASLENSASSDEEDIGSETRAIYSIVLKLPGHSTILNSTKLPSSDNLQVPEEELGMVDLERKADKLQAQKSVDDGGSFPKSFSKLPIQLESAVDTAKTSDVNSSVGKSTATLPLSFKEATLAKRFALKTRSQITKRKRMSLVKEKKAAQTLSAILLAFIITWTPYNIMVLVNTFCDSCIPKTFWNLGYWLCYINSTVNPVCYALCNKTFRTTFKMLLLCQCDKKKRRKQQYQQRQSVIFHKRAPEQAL
T4 sequence (P08483 whole entry): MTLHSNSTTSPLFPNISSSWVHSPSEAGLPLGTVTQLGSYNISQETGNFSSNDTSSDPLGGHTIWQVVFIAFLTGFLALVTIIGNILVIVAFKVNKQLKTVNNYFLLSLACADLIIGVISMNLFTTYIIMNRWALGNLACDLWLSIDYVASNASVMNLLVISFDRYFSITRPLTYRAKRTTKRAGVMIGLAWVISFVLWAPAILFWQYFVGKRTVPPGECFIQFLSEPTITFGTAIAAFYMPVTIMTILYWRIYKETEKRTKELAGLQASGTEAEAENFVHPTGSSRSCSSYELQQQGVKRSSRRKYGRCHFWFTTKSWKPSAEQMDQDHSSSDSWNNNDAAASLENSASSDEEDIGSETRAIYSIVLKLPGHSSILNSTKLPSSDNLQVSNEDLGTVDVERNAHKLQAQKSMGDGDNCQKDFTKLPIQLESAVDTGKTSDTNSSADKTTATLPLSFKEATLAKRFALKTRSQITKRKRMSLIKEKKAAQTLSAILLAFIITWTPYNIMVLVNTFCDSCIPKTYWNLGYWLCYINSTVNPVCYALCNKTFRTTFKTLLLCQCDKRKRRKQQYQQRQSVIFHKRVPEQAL

Regarding `COc1cc2c(cc1OC)C(=O)C(CC1CCN(Cc3ccccc3)CC1)C2` (centres unmarked) [Donepezil], in the data set on CD-1 Mice, the “Mean D Score” value is 70.35%.
With `CCCCCCOc1nsnc1C1=CCCN(C)C1` [Xanomeline, reference compound], the “Loss at 6 hrs (%)” value in data set [1] came to 100%. Further, the “Mean D Score” value with CD-1 Mice is on record as 72.05%.
For `Cc1noc(C2CCCNC2)n1` (racemic) [Compound 3, 3-Methyl-5-(piperidin-3-yl)-1,2,4-oxadiazole], in data set [2] (setting [7]), the “huM3/A9L Smax” value came to 54%. Further, the “huM3/A9L ED50 relative to CCh*” value in data set [2] (setting [8]) was “+/− (+/− potency 0.5-2x CCh)”. Besides, the “extent of metabolism in FMO Supersomes (in words)” value at human FMO1 Supersomes is given as “less than half metabolized”. Moreover, the salivation result in the data set with anesthetized normal rats is reported as “causes salivation”. The “reduction of the concentration of A-beta 1-40 in hippocampal microdialysate” value in data set [3] is “approximately 40%”. Also, in data set [3], the “reduction of the concentration of A-beta 1-42 in hippocampal microdialysate” value is “approximately 40%”. Besides, the “Climbing Mean” value in the data set with CD-I mice (Cmpd 3 0.1 mg/kg + APO 2 mg/kg) was 8.9 s; in the data set on CD-I mice (Cmpd 3 0.1 mg/kg + APO + N-Methyl Scopolamine 0.3 mg/kg), 12.3 s; in the data set on CD-I mice (Cmpd 3 0.1 mg/kg + APO + scopolamine 0.3 mg/kg) it was 47.0 s. Further, the “activity in the apomorphine induced climbing model” value with CD-I mice (setting [9]) was “highly active and highly potent”. For the same compound, the “potency in inhibiting climbing compared with haloperidol” value in the data set with CD-I mice (setting [9]) is “equipotent to haloperidol”. In data set [4], the “hippocampal IP response” value is “causes an increase in the hippocampal IP response”. In data set [5] (setting [7]), the “huM1/A9L Smax” value was 108%. Also, the “huM1/A9L ED50 relative to CCh*” value in data set [5] (setting [8]) was “+ (+ potency 2-10x CCh)”. Besides, the “metabolism in human liver microsomes (in words)” value in data set [6] is “metabolized significantly less in human liver microsomes than in rat liver microsomes”. Moreover, the apparent permeability (Papp) in the data set “in vitro” amounted to 2.56 ×10⁻⁶ cm/s.
With `[2H]C([2H])([2H])c1noc(C2CN=CNC2)n1` (centres unmarked) [Compound 4c, 3-(d3-methyl)-5-(1,4,5,6-tetrahydropyrimidin-5-yl)-1,2,4-oxadiazole hydrochloride], the “M3/CHO PI turnover Relative Mean Smax” value on rat M3 receptors is 92.6.

The values are drawn from patent US9403806B1, “Cognition enhancing compounds and compositions, methods of making, and methods of treating” (NeuroSolis, Inc., priority 2010, dated 2016).
